In the data set the test system is LRP1. As to the kind of experiment: LRP1 protein expression in rat brain microvascular ECs (Western blot, immunofluorescence). The class given is cell-based. From the text: To study the role of miRNA signaling in amylin-induced suppression of endothelial LRP1 expression, transfection of rat brain microvascular ECs was used with miR-103-3p (MCR01039)[…](SEQ ID NO: 5), miR-107-3p (MCR01045)[…](SEQ ID NO: 6) and control (MCH00000) (https://www.abmgood.com/mirna-mimic-negative-control-mch00000.html). Antagomir miR-103-3p (IH-320345-05-0005)(SEQ ID NO: 5), miR-107-3p (IH-320348-05-0005)(SEQ ID NO: 6) and negative control (IN-001005-01-05) (https://www.biocompare.com/22445-RNA/4995709-miRIDIAN-microRNA-Hairpin-Inhibitor-Negative-Control-1-5-nmol/#productspecs) (Dharmacon Inc.) were used in an attempt to rescue LRP1 expression. All transfections were done using RNAiMAX (Invitrogen) as per manufacturer's recommended protocol. Briefly, ECs were plated at 50% confluency in 6-well plates followed by co-transfection with either 100 nM of 103-3p and 107-3p mimics or antagomirs along with their respective negative controls. After 12-hours, antagomir-treated cell groups were further treated with 10 uM human amylin for 24-hours. After 36-hours of transfection, cells were harvested for Western blot analysis.
In immunofluorescence experiments, formalin-fixed, paraffin-embedded human brain tissue was used and processed as previously described^16,18,39, brain capillaries from HIP and WT rats isolated as previously described^18. and cultured ECs. Anti-amylin (1:200; clone E5; SC-377530; Santa Cruz), anti-collagen IV (1:500; ab6586; abcam), anti-alpha smooth muscle actin-Alexa Fluor 405 (1:200; ab210128, abcam), anti-caveolin-1 (1:100; sc-894; Santa Cruz, Tex.), anti-LRP1 (1:500; sc-57351; Santa Cruz), anti-4HNE (1:200; ab46545; abcam) were the primary antibodies. Secondary antibodies were: Alexa Fluor 488 conjugated anti-mouse IgG (1:300; A11029; Invitrogen), Alexa Fluor 568 conjugated anti-rabbit IgG (1:200; A11036; Invitrogen), Alexa Fluor 568 conjugated anti-mouse IgG (1:300; A11004; Invitrogen). Nuclei were counterstained with DAPI mounting media. For triple staining of human brain tissues, smooth muscle actin-Alexa Fluor 405 antibody was added after staining with human amylin and collagen IV; DAPI free mounting media was used. For Thioflavin S staining, after secondary antibody incubation, brain slides were incubated in 0.5% Thioflavin S for 30 minutes at room temperature. Slides were then incubated for 3 minutes in 70% ethanol, 5 minutes in 0.2% Sudan black before washing and mounting. Immunocytochemistry was performed as described previously (39, 40).
Western blot analysis was performed on isolated brain capillaries, brain tissue homogenate and plasma from rats. Tissues were processed as described previously^16,18,28,39. RIPA buffer with 2% SDS was used to retrieve Aβ monomers from frozen brain samples^41. […]
(In general: In western blotting, separated proteins are transferred to a membrane and probed.)

For rat amylin, the LRP1 protein levels entry (ECs, 10 μM, 24-hour incubation, confocal microscopy and Western blot) is “no effect”.
In the case of “miR-103 and miR-107 mimics: co-transfected miRNA mimics miR-103-3p (SEQ ID NO: 5) and miR-107-3p (SEQ ID NO: 6) (chain 1 AGCAGCAUUGUACAGGGCUAUGA; chain 2 AGCUUCUUUACAGUGUUGCCUUGU; listed as RNA, chemistry not given here)”, for the setting “ECs co-transfected with 100 nM mimics, 24 hours, vs miR-control, Western blot”, the “average LRP1 expression level” value is recorded as “lower”.

Source of the values: patent publication US20220401428A1, “Method for Treatment of Alzheimer's Disease” (University of Kentucky Research Foundation, priority 2019, published 2022).
